# From PubChem BioAssay (NCI)
#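 Five concentrations, 48 hours, 96-well plates. TGI marks complete inhibition of growth.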 *1 amine or outer side, *2 acyl side, *3 side chain or, on linkers, in order; H or OH if unused. Where a SMILES comes first, the peptide text is derived from it. Bridges are numbered along the chain shown (N, C = ends). Roman numbers before positions name the chains, in order. [ ]: non-standard residue; d: D form. ξ: configuration not given here. X54 = N=C(N)NCCC[C@@H](NC(=N)CCCCCCC(=N)N[C@H](CCCNC(=N)N)C(=O)[*:2])C(=O)[*:1]; dIgl = N[C@@H](C(=O)O)C1Cc2ccccc2C1; Hyp = O=C(O)[C@@H]1C[C@@H](O)CN1; ξIgl = NC(C(=O)O)C1Cc2ccccc2C1; ξOic = O=C(O)C1CC2CCCCC2N1; ξR = N=C(N)NCCCC(N)C(=O)O; ξP = O=C(O)C1CCCN1; ξS = NC(CO)C(=O)O
# Assays:
# Assay in all cases: NCI-60 cell line screen, 48 h
# HCT-116 colon = tested on: HCT-116 colon
# HS 578T breast = tested on: HS 578T breast
# MCF7 breast = tested on: MCF7 breast
# MDA-MB-231 breast = tested on: MDA-MB-231 breast
# NCI-H460 lung = tested on: NCI-H460 lung
# OVCAR-4 ovarian = tested on: OVCAR-4 ovarian
# SF-268 CNS = tested on: SF-268 CNS
# SK-MEL-28 melanoma = tested on: SK-MEL-28 melanoma
# SN12C renal = tested on: SN12C renal
# TK-10 renal = tested on: TK-10 renal
# UO-31 renal = tested on: UO-31 renal
SMILES,TGI (HCT-116 colon) [µM],TGI (HS 578T breast) [µM],TGI (MCF7 breast) [µM],TGI (MDA-MB-231 breast) [µM],TGI (NCI-H460 lung) [µM],TGI (OVCAR-4 ovarian) [µM],TGI (SF-268 CNS) [µM],TGI (SK-MEL-28 melanoma) [µM],TGI (SN12C renal) [µM],TGI (TK-10 renal) [µM],TGI (UO-31 renal) [µM]
Clc1ccc(CCNC2(c3cc4ccccc4s3)CCCCC2)cc1Cl,29.3,> 100,33.5,43.2,40.3,> 100,> 100,87.2,> 100,65.9,36.7
CN(C)Cc1c(O)ccc2c1c1c(n2C)C(=O)c2ccccc2C1=O,> 100,> 100,> 100,> 100,> 100,32.3,> 100,20,> 100,50.7,37.5
Cn1c(-c2ccc(-c3cc(-c4cccs4)c(-c4cccs4)n3C)cc2)cc(-c2cccs2)c1-c1cccs1,> 100,> 100,> 100,> 100,> 100,> 100,> 100,> 100,> 100,> 100,> 100
COc1ccccc1NC(=S)N=Nc1c(O)[nH]c2ccccc12,> 100,> 100,> 100,> 100,> 100,> 100,13.5,23.6,> 100,> 100,> 100
O=C1/C(=C/c2ccc(O)cc2)CCCC1CN1CCCCC1 (stereo not drawn),3.22,11.5,6.49,4.43,30.7,25.8,11.9,10.6,7.05,8.64,5.88
Cc1ncc([N+](=O)[O-])n1CC[N+](C)([O-])CCCCn1ccnc1[N+](=O)[O-] (stereo not drawn),> 100,> 100,> 100,> 100,> 100,> 100,> 100,> 100,> 100,> 100,> 100
COC(=O)c1c(O)ccc2c1c1cc3ccccc3cc1n2Cc1cc(OC)cc(OC)c1,> 100,8.5,> 100,> 100,> 100,> 66.9,> 26.9,> 100,> 100,> 100,> 100
CC(C)NC(=O)OCc1c(COC(=O)NC(C)C)c(-c2ccc[n+](COC(=O)Cc3ccccc3)c2)n2c1CCC2,> 100,> 100,> 100,74.7,> 100,57.8,68,> 100,> 100,> 100,70.8
CC(C)(C)NC1=NC(C(F)(F)F)(C(F)(F)F)NC(=O)N1,> 100,> 100,> 100,> 100,> 100,> 100,> 100,> 100,> 100,> 100,> 100
CC(=O)O[C@H]1C(=O)[C@@]2(C)[C@H]([C@H](OC(=O)c3ccccc3)[C@]3(O)C[C@H](OC(=O)[C@H](O)[C@@H](NC(=O)c4ccccc4)c4ccc5ccccc5c4)C(C)=C1C3(C)C)[C@]1(OC(C)=O)CO[C@@H]1C[C@@H]2O,0.237,0.148,0.879,1.8,5.19,> 41,> 50,> 23.1,17.2,18.6,> 50
CC(C)=CC1C(C(=O)Oc2ccccc2C(C)C)C1(C)C (stereo not drawn),50.9,> 100,38,52,47,> 100,> 100,> 100,40.1,96,34.6
N=C(N)NCCCC(NC(=O)C1CC2CCCCC2N1C(=O)[C@H](NC(=O)C(CO)NC(=O)C(NC(=O)CNC(=O)[C@@H]1C[C@@H](O)CN1C(=O)C1CCCN1C(=O)C(CCCNC(=N)N)NC(=O)[C@@H](CCCNC(=N)N)NC(=N)CCCCCCC(=N)N[C@H](CCCNC(=N)N)C(=O)NC(CCCNC(=N)N)C(=O)N1CCCC1C(=O)N1C[C@H](O)C[C@H]1C(=O)NCC(=O)NC(C(=O)NC(CO)C(=O)N[C@@H](C(=O)N1C(C(=O)NC(CCCNC(=N)N)C(=O)O)CC2CCCCC21)C1Cc2ccccc2C1)C1Cc2ccccc2C1)C1Cc2ccccc2C1)C1Cc2ccccc2C1)C(=O)O (stereo partly drawn) (I: [ξR][ξP][Hyp]G[ξIgl][ξS][dIgl][ξOic][ξR]-OH / II: [ξR][ξP][Hyp]G[ξIgl][ξS][dIgl][ξOic][ξR]-OH; linker I:N-II:N via X54),> 10,6.82,4.04,3.49,3.87,4.56,3.82,3.64,4.16,8.95,> 10
COC(=O)CNC(=O)C(Cc1ccccc1)NC(=O)c1ccc(-c2ccc(Cl)cc2Cl)o1 (stereo not drawn),43.2,52.1,62.1,52.4,40.3,> 100,69.8,> 100,> 100,75.2,> 100
CC(C)(C)COC(=O)C(C)(C)NC(=O)C(CC(=O)OCc1ccccc1)NC(=O)OCc1ccccc1 (stereo not drawn),> 100,> 100,> 100,> 100,> 100,> 100,> 100,> 100,75.7,78.7,70.7
CC(=O)OCC1OC(N2C(=O)NC(=O)C3C=C4CCCCC4=CC32)CC1OC(C)=O (stereo not drawn),> 100,> 100,> 100,> 100,> 100,> 100,> 100,> 100,> 100,> 100,> 100
COc1cc(C2c3cc4c(cc3OC(NNc3ccccc3)C2C)OCO4)cc(OC)c1OC (stereo not drawn),13.9,> 43.4,> 35.7,> 63.4,16.4,> 100,38.1,> 100,> 62,31.8,6.79
Cc1nnc(N)nc1/C=C\c1ccc(Cl)cc1Cl,63.1,99.2,> 100,> 100,42.8,> 100,> 100,> 100,> 100,> 100,> 100
O=C1c2cc(I)ccc2N2CCN=C2N1Cc1ccccc1,> 100,> 100,> 100,> 100,> 100,> 100,> 100,> 100,> 100,> 100,> 100
